Assay results published in US12290497B2, “Agent containing 4-phenylbutyrate, for preventing or treating presbyopia” (SANTEN PHARMACEUTICAL CO., LTD., priority 2018, dated 2025).

Key:
lens elasticity [1] = experiment: Pharmacological Test 2: effect of sodium 4-phenylbutyrate eye drops on lens elasticity; assay type: in vivo, C57BL/6J mice; settings: 3 times per day for 12 to 15 days; for Lens elasticity improvement: 2.5 μL/eye, 8-month-old mice, vs vehicle control
Protocol: The effect of sodium 4-phenylbutyrate on the lens elasticity was examined. A vehicle comprising 0.1% (w/v) of ethyl pyruvate, 0.269% (w/v) of sodium dihydrogenphosphate monohydrate (NaH2PO4H2O), 0.433% (w/v) of disodium hydrogenphosphate (Na2HPO4), 0.2% (w/v) of hydroxypropyl methylcellulose, 0.5% (w/v) of NaCl was prepared. Sodium 4-phenylbutyrate was sonicated with the addition of the vehicle to prepare a 1.5% (w/v) solution. The resulting 1.5% (w/v) solution was diluted with the vehicle to prepare a 0.5% (w/v) solution. Further, the resulting 0.5% (w/v) solution was diluted with the vehicle to prepare a 0.15% (w/v) solution. The total amount of each sample to be used in one day was prepared before use. EV06 was sonicated with the addition of the vehicle to prepare a 1.5% (w/v) solution. The total amount of the sample to be used in one day was prepared before use. 1) Each test sample (2.5 μL/eye) was instilled into the right eye of 8-month-old C57BL/6J mice with a Pipetman 3 times per day (around 9:00, 13:00 and 17:00) for 12 to 15 days. 2) After the final instillation, the mice were euthanized by carbon dioxide inhalation, and then the eyeballs were extracted and rinsed with Hank's balanced salt solution (HBSS). 3) The sclera near the optic nerve was cut with a razor, the lens was removed through the incision, and the removed lens was immersed in HESS. 4) The lens was placed on a glass slide, and an all-in-one fluorescence microscope BZ-9000 (Keyence) was used to capture an image of the lens (Image a). 5) Next, one cover glass (Corning^(registered trade mark) 22×22 mm Square) was placed on the lens, and an image in which the thickness of the lens changed due to the weight was similarly captured (Image b). 6) A change in the lens diameter was calculated from Equation 1 wherein the lens diameter of Image a is subtracted from the lens diameter of Image b, as described below. Then, the lens elasticity improvement of each sample group compared with the vehicle control group was calculated from Equation 2 described below. The mean of the vehicle control group was based on 4 eyes, the mean of each sodium 4-phenylbutyrate sample group and the mean of the EV06 sample group were based on 9-10 eyes. Change in lens diameter=Lens diameter in Image b of each test sample−Lens diameter in Image a of each test sample (Equation 1) Lens elasticity improvement of each sample group=Mean change in lens diameter of each Test sample group−Mean change in lens diameter of Vehicle control group (Equation 2) (Results)

lens elasticity [2] = experiment: Pharmacological Test 1: effect of EV06 eye drops on lens elasticity (lens diameter change under cover glass); assay type: in vivo, C57BL/6J mice; settings: 3 times per day for 15 to 17 days; for Lens elasticity improvement: 2.5 μL/eye, 8-month-old mice, vs vehicle control
Protocol: The effect of lipoic acid choline ester (EV06) on the lens elasticity was examined. The tests were conducted with reference to the methods described in InvestOphthalmol Vis Sci, 57, 2851-2863, 2016. EV06 is a compound represented by the following formula (2): A vehicle comprising 0.1% (w/v) of ethyl pyruvate, 0.269% (w/v) of sodium dihydrogenphosphate monohydrate (NaH2PO4H2O), 0.433% (w/v) of disodium hydrogenphosphate (Na2HPO4), 0.2% (w/v) of hydroxypropyl methylcellulose, and 0.5% (w/v) of NaCl was prepared. EV06 was sonicated with the addition of the vehicle to prepare a 5% (w/v) suspension. The resulting 5% (w/v) suspension was diluted with the vehicle to prepare a 1.5% (w/v) solution. Further, the resulting 1.5% (w/v) solution was diluted with the vehicle to prepare a 0.5% (w/v) solution. The total amount of each sample to be used in one day was prepared before use. 1) Each test sample (2.5 μL/eye) was instilled into the right eye of 8-month-old C57BL/6J mice with a Pipetman 3 times per day (around 9:00, 13:00 and 17:00) for 15 to 17 days. 2) After the final instillation, the mice were euthanized by carbon dioxide inhalation, and then the eyeballs were extracted and rinsed with Hank's balanced salt solution (HBSS). 3) The sclera near the optic nerve was cut with a razor, the lens was removed through the incision, and the removed lens was immersed in HESS. 4) The lens was placed on a glass slide, and an all-in-one fluorescence microscope BZ-9000 (Keyence) was used to capture an image of the lens (Image a). 5) Next, one cover glass (Corning^(registered trade mark) 22×22 mm Square) was placed on the lens, and an image in which the thickness of the lens changed due to the weight was similarly captured (Image b). 6) A change in the lens diameter was calculated from Equation 1 wherein the lens diameter of Image a is subtracted from the lens diameter of Image b, as described below. Then, the lens elasticity improvement of each sample group compared with the vehicle control group was calculated from Equation 2 described below. The mean of the vehicle control group was based on 6 eyes and the mean of each EV06 sample group was based on 12 eyes. Change in lens diameter=Lens diameter in Image b of each test sample−Lens diameter in Image a of each test sample (Equation 1) Lens elasticity improvement of each sample group=Mean change in lens diameter of each EV06 sample group−Mean change in lens diameter of Vehicle control group (Equation 2) (Results)

lens elasticity [3] = experiment: Pharmacological Test 3: effect of once-daily instillation of sodium 4-phenylbutyrate for 2 weeks on lens elasticity; assay type: in vivo, C57BL/6J mice; settings: for Lens elasticity improvement: 2.5 μL/eye, vs vehicle control
Protocol: The effect of once-daily instillation of sodium 4-phenylbutyrate for 2 weeks on the lens elasticity was examined. A vehicle comprising 0.1% (w/v) of ethyl pyruvate, 0.269% (w/v) of sodium dihydrogenphosphate monohydrate (NaH2PO4H2O), 0.433% (w/v) of disodium hydrogenphosphate (Na2HPO4), 0.2% (w/v) of hydroxypropyl methylcellulose, and 0.5% (w/v) of NaCl was prepared. Sodium 4-phenylbutyrate was dissolved with the addition of the vehicle to prepare a 3.0% (w/v) solution. The resulting 3.0% (w/v) solution was diluted with the vehicle to prepare a 1.0% (w/v) solution. Further, the resulting 1.0% (w/v) solution was diluted with the vehicle to prepare a 0.3% (w/v) solution. The total amount of each sample to be used in one day was prepared before use. EV06 was sonicated with the addition of the vehicle to prepare a 1.5% (w/v) solution. The total amount of the sample to be used in one day was prepared before use. 1) Each test sample (2.5 μL/eye) was instilled into the right eye of 8-month-old C57BL/6J mice with a Pipetman once per day (QD; around 9:00) or 3 times per day (TID; around 9:00, 13:00 and 17:00) for 14 days. 2) After the final instillation, the mice were euthanized by carbon dioxide inhalation, and then the eyeballs were extracted and rinsed with Hank's balanced salt solution (HBSS). 3) The sclera near the optic nerve was cut with a razor, the lens was removed through the incision, and the removed lens was immersed in HBSS. 4) The lens was placed on a glass slide, and an all-in-one fluorescence microscope BZ-9000 (Keyence) was used to capture an image of the lens (Image a). 5) Next, one cover glass (Corning^(registered trade mark) 22×22 mm Square) was placed on the lens, and an image in which the thickness of the lens changed due to the weight was similarly captured (Image b). 6) A change in the lens diameter was calculated from Equation 1 wherein the lens diameter of Image a is subtracted from the lens diameter of Image b, as described below. Then, the lens elasticity improvement of each sample group compared with the vehicle control group was calculated from Equation 2 described below. The mean of the vehicle control group was based on 5 eyes. The mean of each sodium 4-phenylbutyrate sample group and the mean of each EV06 sample group were based on 9 to 10 eyes. Change in lens diameter=Lens diameter in Image b of each test sample−Lens diameter in Image a of each test sample (Equation 1) Lens elasticity improvement of each sample group=Mean change in lens diameter of each Test sample group−Mean change in lens diameter of Vehicle control group (Equation 2) (Results)

[4] = system: anterior segment of the eye; experiment: Ocular Irritation Test (McDonald-Shadduck method, lens observation, histopathology); assay type: in vivo, Japanese White rabbits
Protocol: A vehicle (aqueous solution) comprising 0.1% (w/v) of ethyl pyruvate, 0.269% (w/v) of sodium dihydrogenphosphate monohydrate (NaH2PO4H2O), 0.433% (w/v) of disodium hydrogenphosphate (Na2HPO4), 0.2% (w/v) of hydroxypropyl methylcellulose, 0.5% (w/v) of NaCl was prepared.
0.3% (w/v), 1% (w/v), and 3% (w/v) sodium 4-phenylbutyrate ophthalmic liquids were prepared in the same manner as in the above pharmacological tests. These ophthalmic liquids and the vehicle were each instilled into the left eye of Japanese White rabbits at a dose of 50 μL/eye with pipette twice per day at a 6-hour interval for 2 weeks. One hour after the final instillation, ocular irritation of anterior segment of the eye was evaluated according to the McDonald-Shadduck method, and the lens was observed. The contralateral eye was […].
The ocular irritation of anterior segment of the eye was scored according to the following criteria:
+1: mild; +2: moderate; +3: severe.

SMILES | Lens elasticity improvement (lens elasticity [1]; 1.5% (w/v) sample) | Lens elasticity improvement (lens elasticity [2]; 0.5% (w/v) sample) | Lens elasticity improvement (lens elasticity [2]; 1.5% (w/v) sample) | Lens elasticity improvement (lens elasticity [2]; 5% (w/v) sample) | Lens elasticity improving effect (in words) (lens elasticity [2]; all of the 0.5%, 1.5%, and 5% groups) | Lens elasticity improvement (lens elasticity [3]; 1.5% (w/v) sample, 3 times per day (TID) for 14 days) | Lens elasticity improvement (lens elasticity [3]; 1.5% (w/v) sample, once per day (QD) for 14 days) | Lens elasticity improvement (lens elasticity [1]; 0.15% (w/v) sample) | Lens elasticity improvement (lens elasticity [1]; 0.5% (w/v) sample) | Lens elasticity improving effect compared with EV06 at the same concentration (lens elasticity [1]; 1.5% sample group) | Lens elasticity improving effect (in words) (lens elasticity [1]; all of the 0.15%, 0.5%, and 1.5% groups) | Overall safety of ophthalmic liquids (in words) ([4]; ophthalmic liquids, rabbit 2-week instillation) | Histopathological examination of the eyes (in words) ([4]; rabbit, in vivo) | Observation of ocular irritation of anterior segment of the eye and lens observation (in words) ([4]; rabbit, in vivo) | Lens elasticity improvement (lens elasticity [3]; 0.3% (w/v) sample, once per day (QD) for 14 days) | Lens elasticity improvement (in words) (lens elasticity [3]; 0.3%, 1% and 3% samples instilled once-daily for 14 days) | Lens elasticity improvement (lens elasticity [3]; 1.0% (w/v) sample, once per day (QD) for 14 days) | Lens elasticity improvement (lens elasticity [3]; 3.0% (w/v) sample, once per day (QD) for 14 days) | Lens elasticity improvement compared with 1.5% EV06 (lens elasticity [3]; concentrations 1.0% and 3.0%, once-daily for 14 days)
C[N+](C)(C)CCOC(=O)CCCC[C@@H]1CCSS1.[Cl-] [EV06, lipoic acid choline ester] | 49.0 μm | 28.8 μm | 47.3 μm | 48.7 μm | increased lens diameter compared with the vehicle control group | 47.9 μm | 21.6 μm |  |  |  |  |  |  |  |  |  |  |  | 
O=C([O-])CCCc1ccccc1.[Na+] [sodium 4-phenylbutyrate] | 51.4 μm |  |  |  |  |  |  | 38.1 μm | 47.5 μm | stronger than that of EV06 | potent lens elasticity improving effect | highly safe | showed no abnormal findings | no abnormal findings were observed | 25.6 μm | potent lens elasticity improvement | 30.6 μm | 48.1 μm | more potent lens elasticity improvement compared with 1.5% EV06
